Assays:
Bronchial cells = test: Apical disappearance assay (epithelial absorption); format: in vitro ADME; conditions: for Epithelial Uptake Rate: apical surface, initial concentration 10 μM
Description: Bronchial cells (dog, human, sheep, or rodent cells) are seeded at a density of 0.25×10^6/cm^2 on a porous Transwell-Col collagen-coated membrane with a growth area of 1.13 cm^2 grown at an air-liquid interface in hormonally defined media that promotes a polarized epithelium. From 12 to 20 days after development of an air-liquid interface (ALI) the cultures are expected to be >90% ciliated, and mucins will accumulate on the cells. To ensure the integrity of primary airway epithelial cell preparations, the transepithelial resistance (Rt) and transepithelial potential differences (PD), which are indicators of the integrity of polarized nature of the culture, are measured. Human cell systems are preferred for studies of rates of absorption from apical surfaces. […] A series of samples (5 μl volume per sample) is collected at various time points, including 0, 5, 20, 40, 90 and 240 minutes. Concentrations are determined by measuring intrinsic fluorescence of each sodium channel blocker using a Fluorocount Microplate Flourometer or HPLC. Quantitative analysis employs a standard curve generated from authentic reference standard materials of known concentration and purity. Data analysis of the rate of disappearance is performed using nonlinear regression, one phase exponential decay (Prism V 3.0).

mouse corneas = test: Confocal microscopy of drug penetration in mouse corneas; conditions: one hour after application to corneal epithelium, 37° C. (FIG. 2)
Description: Corneal cells were labeled using calcein-AM dye by incubating with corneas for 45 minutes at 37° C. in DMEM media. […] Serial x-y images were obtained one hour post-drug addition by confocal microscopy. […] Pharmacological Effects and Mechanism of Action of the Drug in Animals

[1] = molecular target: T1, airway epithelial sodium currents (epithelial sodium channel, ENaC) (UniProt A0A8I3MKE6+A0A8I3Q679+Q95165); test: Sodium channel blocking activity: short circuit current (ISC) in airway epithelial monolayers in Ussing chambers; conditions: for IC50: read-out: Potency of Sodium Channel Blockade (IC50), lumenal addition, airway epithelial monolayers (human, dog, sheep or rodent cells, not specified)
T1 sequence (A0A8I3MKE6 1-646): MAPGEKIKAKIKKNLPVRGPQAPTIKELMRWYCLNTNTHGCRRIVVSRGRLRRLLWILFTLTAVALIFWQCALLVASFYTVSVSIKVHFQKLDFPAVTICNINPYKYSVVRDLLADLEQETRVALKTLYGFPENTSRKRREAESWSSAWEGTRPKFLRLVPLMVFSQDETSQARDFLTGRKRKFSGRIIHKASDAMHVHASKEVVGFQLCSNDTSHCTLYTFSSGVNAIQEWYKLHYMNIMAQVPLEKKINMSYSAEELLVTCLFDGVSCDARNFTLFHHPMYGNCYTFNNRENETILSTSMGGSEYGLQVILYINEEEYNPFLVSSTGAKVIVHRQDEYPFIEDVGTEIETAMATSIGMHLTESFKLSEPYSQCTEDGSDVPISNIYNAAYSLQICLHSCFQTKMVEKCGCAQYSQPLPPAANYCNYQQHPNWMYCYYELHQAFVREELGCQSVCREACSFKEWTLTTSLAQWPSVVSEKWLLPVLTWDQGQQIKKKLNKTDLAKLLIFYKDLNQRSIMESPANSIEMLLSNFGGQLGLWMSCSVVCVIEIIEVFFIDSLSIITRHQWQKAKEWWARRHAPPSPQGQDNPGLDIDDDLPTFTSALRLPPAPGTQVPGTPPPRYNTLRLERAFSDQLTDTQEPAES
T1 sequence (A0A8I3Q679 1-649): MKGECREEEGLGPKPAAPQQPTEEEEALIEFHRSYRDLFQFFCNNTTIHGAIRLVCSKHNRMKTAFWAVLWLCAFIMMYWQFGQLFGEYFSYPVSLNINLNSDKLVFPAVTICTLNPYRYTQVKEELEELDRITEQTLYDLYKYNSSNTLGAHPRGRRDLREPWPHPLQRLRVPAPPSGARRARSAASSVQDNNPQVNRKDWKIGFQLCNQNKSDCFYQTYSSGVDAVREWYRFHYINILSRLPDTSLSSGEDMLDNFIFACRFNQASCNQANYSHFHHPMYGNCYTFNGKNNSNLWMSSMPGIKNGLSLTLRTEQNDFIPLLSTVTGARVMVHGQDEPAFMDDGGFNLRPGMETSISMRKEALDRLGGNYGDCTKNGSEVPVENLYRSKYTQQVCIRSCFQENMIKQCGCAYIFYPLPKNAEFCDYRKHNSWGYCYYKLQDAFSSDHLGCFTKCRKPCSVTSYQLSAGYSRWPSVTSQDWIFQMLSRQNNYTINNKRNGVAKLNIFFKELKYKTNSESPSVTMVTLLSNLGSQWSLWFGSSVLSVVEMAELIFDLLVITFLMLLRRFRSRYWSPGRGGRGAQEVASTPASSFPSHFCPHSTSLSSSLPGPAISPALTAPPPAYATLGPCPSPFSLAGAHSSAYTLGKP
T1 sequence (Q95165 1-641): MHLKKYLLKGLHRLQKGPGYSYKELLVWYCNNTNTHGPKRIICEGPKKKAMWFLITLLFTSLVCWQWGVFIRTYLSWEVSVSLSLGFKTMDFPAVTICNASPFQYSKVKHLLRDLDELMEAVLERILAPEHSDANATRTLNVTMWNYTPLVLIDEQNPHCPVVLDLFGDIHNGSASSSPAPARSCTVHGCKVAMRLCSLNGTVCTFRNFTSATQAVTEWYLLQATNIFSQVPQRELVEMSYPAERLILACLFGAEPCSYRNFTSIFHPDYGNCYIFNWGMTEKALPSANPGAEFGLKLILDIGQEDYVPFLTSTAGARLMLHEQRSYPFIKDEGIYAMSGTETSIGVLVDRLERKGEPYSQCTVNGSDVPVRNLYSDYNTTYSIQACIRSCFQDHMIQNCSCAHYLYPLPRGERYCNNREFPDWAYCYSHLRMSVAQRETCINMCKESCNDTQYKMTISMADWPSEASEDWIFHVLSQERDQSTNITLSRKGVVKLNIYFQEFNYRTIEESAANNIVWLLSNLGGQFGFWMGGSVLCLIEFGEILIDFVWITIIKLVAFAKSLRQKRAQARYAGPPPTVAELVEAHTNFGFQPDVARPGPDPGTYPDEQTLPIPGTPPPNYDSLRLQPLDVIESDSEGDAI
Description: One assay used to assess mechanism of action and/or potency of the compounds of the present invention involves the determination of lumenal drug inhibition of airway epithelial sodium currents measured under short circuit current (ISC) using airway epithelial monolayers mounted in Ussing chambers. Cells obtained from freshly excised human, dog, sheep or rodent airways are seeded onto porous 0.4 micron Snapwell™ Inserts (CoStar), cultured at air-liquid interface (ALI) conditions in hormonally defined media, and assayed for sodium transport activity (ISC) while bathed in Krebs Bicarbonate Ringer (KBR) in Ussing chambers. […] All drugs are prepared in dimethyl sulfoxide as stock solutions at a concentration of 1×10^−2 M and stored at 20° C. […] After the maximal concentration (5×10^−5 M) is administered, the lumenal bath is exchanged three times with fresh, drug-free KBR solution, and the resultant ISC measured after each wash for approximately 5 minutes in duration. Reversibility is defined as the percent return to the baseline value for sodium current after the third wash. All data from the voltage clamps are collected via a computer interface and analyzed off-line.
Dose-effect relationships for all compounds are considered and analyzed by the Prism 3.0 program.

[2] = tested on: primary human airway epithelial cells; test: Confocal microscopy assay of amiloride congener uptake, airway epithelial cells; format: cell-based; conditions: 10 uM apical, 60 minute incubation (FIG. 1)
Description: FIG. 1. […] Benzamil or Compound 2 (10 uM each) were added to the apical compartment of primary human airway epithelial cells. After a 60 minute incubation, the compounds were visualized by confocal microscopy.
Virtually all amiloride-like molecules fluoresce in the ultraviolet range. This property of these molecules may be used to directly measure cellular update using x-z confocal microscopy. […] Serial x-z images are obtained with time and the magnitude of fluorescence accumulating in the cellular compartment is quantitated and plotted as a change in fluorescence versus time.
Primary HBE cells were placed in an apparatus designed to position transwell membrane supports on a confocal microscope stage (Leica, Wetzlar, Germany). The glycocalyx and cilia were labeled with 3 μM wheat germ agglutinin-fluorescein (Molecular Probes, Eugene, Oreg.) for 45 mm at 37° C. to visualize the apical domain of HBE cell cultures. The autofluorescence of the cells was acquired prior to apical compound addition. Images were acquired with a 63× water immersion lens in the x-z plane. Benzamil was added to the mucosal compartment (10 μM; 350 μl), and images were recorded serially from 0 to 5 mm.

| Epithelial Uptake Rate (Bronchial cells) [nM/cm^2/min] | IC50 [1] [nM] | Fold Increase in Potency (Relative to Amiloride) [1] | Cellular penetration/uptake seen by confocal microscopy ([2]; listed as benzamil) | Fold Decrease in Apical Absorption (Relative to Amiloride) (Bronchial cells) | Structure (SMILES) | Corneal penetration seen by confocal microscopy (mouse corneas) | Cellular penetration/uptake seen by confocal microscopy [2] |
| --- | --- | --- | --- | --- | --- | --- | --- |
| 2 |  |  |  |  | N=C(N)NC(=O)c1nc(Cl)c(N)nc1N [Amiloride, reference compound] | can fully penetrate the cornea |  |
|  | 7.4 | 105 |  |  | N=C(NCCCCc1ccc(OCC(O)CO)cc1)NC(=O)c1nc(Cl)c(N)nc1N (stereo not drawn) [Compound 1] |  |  |
| 6.6 | 46 |  | rapidly taken up by the cells | 0.3 | NC(=NCc1ccccc1)NC(=O)c1nc(Cl)c(N)nc1N [Benzamil] |  | largely concentrated inside cells |
|  | 5.9 | 186 |  |  | N=C(NCCCCc1ccc(OCCN(CCCc2cccc3ccccc23)C[C@H](O)[C@@H](O)[C@H](O)[C@H](O)CO)cc1)NC(=O)c1nc(Cl)c(N)nc1N [Compound 6] |  |  |
| 0.2 | 10.2 | 77 |  | 10.0 | N=C(N)NCCOc1ccc(CCCCNC(=N)NC(=O)c2nc(Cl)c(N)nc2N)cc1 [Compound 2] |  | concentrated on the exterior cell surface |
| 0.2 | 6.6 | 118 |  | 10.0 | N=C(NCCCCc1ccc(OCCN(CCCc2ccccc2)C[C@H](O)[C@@H](O)[C@H](O)[C@H](O)CO)cc1)NC(=O)c1nc(Cl)c(N)nc1N [Compound 5] |  |  |
| 9.0 | 116 | 6.5 |  | 0.2 | NC(=Nc1ccccc1)NC(=O)c1nc(Cl)c(N)nc1N [Phenamil, reference compound] |  |  |
|  | 3.2 | 244 |  |  | N=C(N)NCCCC[C@@H](N)C(=O)NCCCN(CCCNC(=O)[C@H](N)CCCCNC(=N)N)CCOc1ccc(CCCCNC(=N)NC(=O)c2nc(Cl)c(N)nc2N)cc1 [Compound 3] | remains associated with the apical (epithelial) surface |  |
